According to PubChem BioAssay (NCI):
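Values below derive from 48-hour exposures of cells grown in 96-well plates, with endpoints linearly interpolated between the two concentrations bracketing the appropriate inhibition level. GI50 = concentration required for 50% inhibition of growth. Definition used: TGI = concentration required for complete inhibition of growth.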

Key:
Experiment in all cases: inhibition of tumour cell growth, NCI panel, 48 h
NCI-H23 lung = tested on: NCI-H23 lung
SF-539 CNS = tested on: SF-539 CNS
SR leukemia = tested on: SR leukemia
OVCAR-3 ovarian = tested on: OVCAR-3 ovarian
SK-MEL-28 melanoma = tested on: SK-MEL-28 melanoma
CAKI-1 renal = tested on: CAKI-1 renal
COLO 205 colon = tested on: COLO 205 colon
T-47D breast = tested on: T-47D breast
IGROV1 ovarian = tested on: IGROV1 ovarian
SK-MEL-2 melanoma = tested on: SK-MEL-2 melanoma
OVCAR-5 ovarian = tested on: OVCAR-5 ovarian
OVCAR-8 ovarian = tested on: OVCAR-8 ovarian
OVCAR-4 ovarian = tested on: OVCAR-4 ovarian
MDA-MB-231 breast = tested on: MDA-MB-231 breast
UACC-62 melanoma = tested on: UACC-62 melanoma
U251 CNS = tested on: U251 CNS
HOP-62 NSCLC = tested on: HOP-62 NSCLC
NCI-H460 lung = tested on: NCI-H460 lung
SNB-75 CNS = tested on: SNB-75 CNS
BT-549 breast = tested on: BT-549 breast
A498 renal = tested on: A498 renal
HOP-92 NSCLC = tested on: HOP-92 NSCLC
HL-60(TB) leukemia = tested on: HL-60(TB) leukemia
SN12C renal = tested on: SN12C renal
HT29 colon = tested on: HT29 colon
K-562 leukemia = tested on: K-562 leukemia
ACHN renal = tested on: ACHN renal
DU-145 prostate = tested on: DU-145 prostate
HCT-15 colon = tested on: HCT-15 colon
UO-31 renal = tested on: UO-31 renal
MOLT-4 leukemia = tested on: MOLT-4 leukemia
SNB-19 CNS = tested on: SNB-19 CNS
M14 melanoma = tested on: M14 melanoma
CCRF-CEM leukemia = tested on: CCRF-CEM leukemia
SF-268 CNS = tested on: SF-268 CNS
EKVX NSCLC = tested on: EKVX NSCLC
SK-MEL-5 melanoma = tested on: SK-MEL-5 melanoma
MDA-MB-468 breast = tested on: MDA-MB-468 breast
NCI/ADR-RES ovarian = tested on: NCI/ADR-RES ovarian
HCT-116 colon = tested on: HCT-116 colon
MCF7 breast = tested on: MCF7 breast
PC-3 prostate = tested on: PC-3 prostate
A549 NSCLC = tested on: A549 NSCLC
SF-295 CNS = tested on: SF-295 CNS
HS 578T breast = tested on: HS 578T breast
786-0 renal = tested on: 786-0 renal
RPMI-8226 leukemia = tested on: RPMI-8226 leukemia
HCC-2998 colon = tested on: HCC-2998 colon
SK-OV-3 ovarian = tested on: SK-OV-3 ovarian
UACC-257 melanoma = tested on: UACC-257 melanoma
SW-620 colon = tested on: SW-620 colon
TK-10 renal = tested on: TK-10 renal
NCI-H226 lung = tested on: NCI-H226 lung
NCI-H522 lung = tested on: NCI-H522 lung
KM12 colon = tested on: KM12 colon
MDA-MB-435 = tested on: MDA-MB-435
LOX IMVI melanoma = tested on: LOX IMVI melanoma
RXF 393 renal = tested on: RXF 393 renal
MALME-3M melanoma = tested on: MALME-3M melanoma

## CCOc1ccccc1[C@H]1C(C(=O)c2ccc(Cl)cc2)C2(N[C@@H]1c1ccccc1)C(=O)Nc1ccc(Cl)cc12 (stereo partly drawn)
NCI-H23 lung
  GI50: 17.3 µM
  TGI: > 18.8 µM
SF-539 CNS
  GI50: > 18.8 µM
  TGI: > 18.8 µM
SR leukemia
  GI50: 5.28 µM
  TGI: > 18.8 µM
OVCAR-3 ovarian
  GI50: 7.8 µM
  TGI: > 18.8 µM
SK-MEL-28 melanoma
  GI50: > 18.8 µM
  TGI: > 18.8 µM
CAKI-1 renal
  GI50: 4.11 µM
  TGI: > 18.8 µM
COLO 205 colon
  GI50: > 18.8 µM
  TGI: > 18.8 µM
T-47D breast
  GI50: 7.73 µM
  TGI: > 18.8 µM
IGROV1 ovarian
  GI50: 7.98 µM
  TGI: > 18.8 µM
SK-MEL-2 melanoma
  GI50: > 18.8 µM
  TGI: > 18.8 µM
OVCAR-5 ovarian
  GI50: > 18.8 µM
  TGI: > 18.8 µM
OVCAR-8 ovarian
  GI50: 18.3 µM
  TGI: > 18.8 µM
OVCAR-4 ovarian
  GI50: > 18.8 µM
  TGI: > 18.8 µM
MDA-MB-231 breast
  GI50: 15 µM
  TGI: > 18.8 µM
UACC-62 melanoma
  GI50: 3.93 µM
  TGI: > 18.8 µM
U251 CNS
  GI50: > 18.8 µM
  TGI: > 18.8 µM
HOP-62 NSCLC
  GI50: > 18.8 µM
  TGI: > 18.8 µM
NCI-H460 lung
  GI50: 7.56 µM
  TGI: > 18.8 µM
SNB-75 CNS
  GI50: 2.84 µM
  TGI: > 18.8 µM
BT-549 breast
  GI50: > 18.8 µM
  TGI: > 18.8 µM
A498 renal
  GI50: > 18.8 µM
  TGI: > 18.8 µM
HOP-92 NSCLC
  GI50: 13 µM
  TGI: > 18.8 µM
HL-60(TB) leukemia
  GI50: 12.8 µM
  TGI: > 18.8 µM
SN12C renal
  GI50: 13.8 µM
  TGI: > 18.8 µM
HT29 colon
  GI50: 14.4 µM
  TGI: > 18.8 µM
K-562 leukemia
  GI50: 6.2 µM
  TGI: > 18.8 µM
ACHN renal
  GI50: 8.05 µM
  TGI: > 18.8 µM
DU-145 prostate
  GI50: > 18.8 µM
  TGI: > 18.8 µM
HCT-15 colon
  GI50: 13.8 µM
  TGI: > 18.8 µM
UO-31 renal
  GI50: 5.3 µM
  TGI: > 18.8 µM
MOLT-4 leukemia
  GI50: 5.36 µM
  TGI: > 18.8 µM
SNB-19 CNS
  GI50: > 18.8 µM
  TGI: > 18.8 µM
M14 melanoma
  GI50: 12.3 µM
  TGI: > 18.8 µM
CCRF-CEM leukemia
  GI50: 11.4 µM
  TGI: > 18.8 µM
SF-268 CNS
  GI50: 10.5 µM
  TGI: > 18.8 µM
EKVX NSCLC
  GI50: 18.6 µM
  TGI: > 18.8 µM
SK-MEL-5 melanoma
  GI50: > 18.8 µM
  TGI: > 18.8 µM
MDA-MB-468 breast
  GI50: 4.84 µM
  TGI: > 18.8 µM
NCI/ADR-RES ovarian
  GI50: > 18.8 µM
  TGI: > 18.8 µM
HCT-116 colon
  GI50: 7.48 µM
  TGI: > 18.8 µM
MCF7 breast
  GI50: 6.01 µM
  TGI: > 18.8 µM
PC-3 prostate
  GI50: 5.51 µM
  TGI: > 18.8 µM
A549 NSCLC
  GI50: 8.86 µM
  TGI: > 18.8 µM
SF-295 CNS
  GI50: 7.53 µM
  TGI: > 18.8 µM
HS 578T breast
  GI50: > 18.8 µM
  TGI: > 18.8 µM
786-0 renal
  GI50: > 18.8 µM
  TGI: > 18.8 µM
RPMI-8226 leukemia
  GI50: 10.6 µM
  TGI: > 18.8 µM
HCC-2998 colon
  GI50: 6.18 µM
  TGI: > 18.8 µM
SK-OV-3 ovarian
  GI50: > 18.8 µM
  TGI: > 18.8 µM
UACC-257 melanoma
  GI50: 8.85 µM
  TGI: > 18.8 µM
SW-620 colon
  GI50: 13.4 µM
  TGI: > 18.8 µM
TK-10 renal
  GI50: > 18.8 µM
  TGI: > 18.8 µM
NCI-H226 lung
  GI50: > 18.8 µM
  TGI: > 18.8 µM
NCI-H522 lung
  GI50: 8.03 µM
  TGI: > 18.8 µM
KM12 colon
  GI50: 9.75 µM
  TGI: > 18.8 µM
MDA-MB-435
  GI50: 13.9 µM
  TGI: > 18.8 µM
LOX IMVI melanoma
  GI50: 9.63 µM
  TGI: > 18.8 µM
RXF 393 renal
  GI50: 16.2 µM
  TGI: > 18.8 µM
MALME-3M melanoma
  GI50: > 18.8 µM
  TGI: > 18.8 µM
